These results are taken from patent US11076597B2, “High stress resistant plant growth regulator and preparation method and use thereof” (SHANGHAI INSTITUTES FOR BIOLOGICAL SCIENCES, CHINESE …, priority 2015, dated 2021).

One experiment relates to soybean GmPYL6 protein. Kind of experiment: AlphaScreen assay, soybean GmPYL6 with Arabidopsis AtHAB1. In kind it is biochemical. The settings on record: fraction of the EC50 of ABA; FIG. 13. As to the method: (§1) The AlphaScreen kit (available from Perkin Elmer) was used, and the method was as follows: a 10× buffer (50 mM MOPS, pH 7.4, 50 mM NaF, 50 mM CHAPS, 0.1 mg/ml bovine serum albumin) diluted at 1:10, each of 100 nM HAB1 with Biotin tag sequence and PYR1/PYL1/PYL2/PYL7/GmPYL6/OsPYL2 protein with dual tags of 6×His and SUMO sequences, corresponding concentrations of (+)-ABA/0224/0304/0706/0708/0713/0715/0428/NC0F4, and 5 μg/ml donor beads and acceptor beads (available from Perkin Elmer) were contained in 150 μl of experimental system. After incubating for 1.5 hours at room temperature in the dark, it was placed into an Envision Plate Reader (available from Perkin Elmer) under the programmed AlphaScreen procedure for readings.

A further experiment addresses T1, rice OsPYL2 protein (Oryza sativa subsp. japonica, UniProt Q5Z8S0).
T1 construct: made in house; host or cells: E. coli BL21 (DE3)
T1 sequence (Q5Z8S0 1-207): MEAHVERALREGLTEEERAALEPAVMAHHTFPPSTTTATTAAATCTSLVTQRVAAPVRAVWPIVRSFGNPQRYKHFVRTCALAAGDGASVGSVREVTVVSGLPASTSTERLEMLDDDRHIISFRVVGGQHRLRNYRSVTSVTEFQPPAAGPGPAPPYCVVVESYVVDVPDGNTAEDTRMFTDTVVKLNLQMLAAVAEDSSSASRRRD
T1 sequence (Q9CAJ0 172-511 partner limits assumed): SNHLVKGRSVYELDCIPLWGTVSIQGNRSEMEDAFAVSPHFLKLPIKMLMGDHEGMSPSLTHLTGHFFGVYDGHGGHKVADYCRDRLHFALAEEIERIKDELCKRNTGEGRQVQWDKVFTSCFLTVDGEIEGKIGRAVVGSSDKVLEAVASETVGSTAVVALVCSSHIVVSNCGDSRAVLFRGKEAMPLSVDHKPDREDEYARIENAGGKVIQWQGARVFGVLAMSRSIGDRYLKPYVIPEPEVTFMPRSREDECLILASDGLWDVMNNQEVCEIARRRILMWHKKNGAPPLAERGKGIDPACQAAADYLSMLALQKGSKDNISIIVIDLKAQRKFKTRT
The experiment in a line: AlphaScreen assay, rice OsPYL2 with Arabidopsis AtHAB1. In kind it is biochemical. To be noted: fraction of the EC50 of ABA; FIG. 13. As to the method: as §1

The next experiment deals with corn. The experiment in a line: Soil drought experiment, corn. To be noted: 50 μM sprayed once a day for two days; 4 days of drought; FIG. 14b. The format is in vivo. The method, then:
Soil drought experiments used for compound 0428 on soybean and maize were similar to that used for compound 0224 on soybeans, with only one plant contained in each pot. All soybean plants were long-day cultured at 26° C. Watering was stopped after the plant had three leaves in each of three groups and the plants with consistent growth were selected for drought treatment. As for corn, watering was stopped during the small bell-mouthed period for drought treatment. A solution containing 0.05% tween-20 and 50 μM (+)-0428 or 0.05% Tween-20 and 0.05% DMSO (control) was sprayed once on leaf surface on the first day and the second day of the drought, respectively, with a spray amount of 4 ml/pot. Meanwhile the pot position was also changed. The soybeans were re-watered 9 days after the drought, the corn was re-watered 4 days after the drought, and the photos were taken the next day.
In another group of experiments, soil drought experiments were performed on soybeans with three leaves in three groups or corn plants during the small trumpet period of the same size.

Take `CCCN1C(=O)OCc2cc(NS(=O)(=O)Cc3c(F)c(F)c(C)c(F)c3F)ccc21` [Compound 0428]: the “EC50 value for soybean GmPYL6 as fraction of that of ABA” value in the experiment with soybean GmPYL6 protein is listed as “about 1/14”. For the same compound, the “EC50 value for rice OsPYL2 as fraction of that of ABA” value at rice OsPYL2 protein was “⅓”. In the experiment on corn, the “growth after drought and re-watering” value is listed as “significantly better growth after re-watering than that in the DMSO-sprayed control group”.
